Measured values from patent US7951810B2, “Substituted pyrrolo[2,3-d]pyrimidines as inhibitors of E1 activating enzymes” (Millennium Pharmaceuticals, Inc., priority 2005, dated 2011).

Biological target: T1, recombinant human NAE enzyme (Homo sapiens, UniProt Q8TBC4)
T1 construct: His (N); made in house; host or cells: Sf9 insect cells (baculovirus, Bac-to-Bac)
T1 sequence (Q8TBC4 1-463): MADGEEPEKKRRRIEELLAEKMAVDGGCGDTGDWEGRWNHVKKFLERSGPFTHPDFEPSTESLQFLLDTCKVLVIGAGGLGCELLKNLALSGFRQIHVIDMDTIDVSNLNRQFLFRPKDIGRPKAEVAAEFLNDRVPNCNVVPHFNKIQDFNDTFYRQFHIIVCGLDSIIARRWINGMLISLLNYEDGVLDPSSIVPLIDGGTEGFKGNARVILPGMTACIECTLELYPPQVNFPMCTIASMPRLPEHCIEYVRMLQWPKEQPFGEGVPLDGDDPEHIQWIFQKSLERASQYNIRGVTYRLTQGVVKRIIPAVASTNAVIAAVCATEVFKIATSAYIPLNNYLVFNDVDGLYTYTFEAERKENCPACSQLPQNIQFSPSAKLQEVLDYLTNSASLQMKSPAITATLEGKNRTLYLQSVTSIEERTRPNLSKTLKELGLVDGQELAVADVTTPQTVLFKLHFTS
T1 sequence (Q13564 1-534 partner): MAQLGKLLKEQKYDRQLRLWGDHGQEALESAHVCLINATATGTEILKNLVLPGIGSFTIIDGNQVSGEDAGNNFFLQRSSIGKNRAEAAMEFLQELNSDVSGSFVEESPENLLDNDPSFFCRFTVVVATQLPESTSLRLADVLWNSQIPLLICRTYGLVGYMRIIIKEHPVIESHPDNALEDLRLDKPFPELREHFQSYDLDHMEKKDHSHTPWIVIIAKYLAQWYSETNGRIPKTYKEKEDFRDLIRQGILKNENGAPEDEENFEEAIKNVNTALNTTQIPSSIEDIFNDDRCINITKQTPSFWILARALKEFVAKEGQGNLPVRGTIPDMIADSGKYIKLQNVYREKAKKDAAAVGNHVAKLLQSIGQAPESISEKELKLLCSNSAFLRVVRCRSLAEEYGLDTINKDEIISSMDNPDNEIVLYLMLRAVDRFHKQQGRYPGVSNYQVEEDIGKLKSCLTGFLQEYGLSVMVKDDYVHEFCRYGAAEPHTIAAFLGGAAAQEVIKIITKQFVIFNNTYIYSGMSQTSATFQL
Assay: Nedd8-Activating Enzyme (NAE) HTRF assay
Format: biochemical
Conditions: 20 μM ATP, 90 minutes at 24° C.
Experimental: Following manufacturer instructions, baculoviruses were generated with the Bac-to-Bac Expression System (Invitrogen) for the following proteins: untagged NAEα (APPBP1; NP_003896.1), N-terminally His-tagged NAEβ (UBE1C; NP_003959.3), untagged SAEα (SAE1; NP_005491.1), N-terminally His-tagged SAEβ (UBA2; NP_005490.1), N-terminally His-tagged murine UAE (UBE1X; NP_033483). NAEα/His-NAEβ and SAEα/His-SAEβ complexes were generated by co-infection of Sf9 cells, which were harvested after 48 hours. His-mUAE was generated by single infection of Sf9 cells and harvested after 72 hours. Expressed proteins were purified by affinity chromatography (Ni-NTA agarose, Qiagen) using standard buffers.
Ubc12 (UBE2M; NP_003960.1), Ubc9 (UBE2I; NP_003336.1), Ubc2 (UBE2A; NP_003327.2) were subcloned into pGEX (Pharmacia) and expressed as N-terminally GST tagged fusion proteins in E. coli. Expressed proteins were purified by conventional affinity chromatography using standard buffers.
Nedd8 (NP_006147), Sumo-1 (NP_003343) and Ubiquitin (with optimized codons) were subcloned into pFLAG-2 (Sigma) and expressed as N-terminally Flag tagged fusion proteins in E. coli. Expressed proteins were purified by conventional chromatography using standard buffers.
Nedd8-Activating Enzyme (NAE) HTRF Assay.
The NAE enzymatic reaction totaled 50 μL and contained 50 mM HEPES (pH 7.5), 0.05% BSA, 5 mM MgCl2, 20 μM ATP, 250 μM GSH, 0.01 μM Ubc12-GST, 0.075 μM Nedd8-Flag and 0.28 nM recombinant human NAE enzyme. The enzymatic reaction mixture, with and without compound inhibitor, was incubated at 24° C. for 90 minutes in a 384-well plate before termination with 25 μL of Stop/Detection buffer (0.1M HEPES pH 7.5, 0.05% Tween20, 20 mM EDTA, 410 mM KF, 0.53 nM Europium-Cryptate labeled monoclonal anti-FLAG M2 antibody (CisBio International) and 8.125 μg/mL PHYCOLINK goat anti-GST allophycocyanin (XL-APC) antibody (Prozyme)). After incubation for 3 hours at 24° C., quantification of the FRET was performed on the Analyst™ HT 96.384 (Molecular Devices).

[1] = threshold less than or equal to 100 nM
[2] = threshold less than or equal to 1 μM

Row | Structure (SMILES) | IC50 [1] | IC50 [2]
1 | NS(=O)(=O)OC[C@H]1O[C@@H](n2cnc3c(N[C@H]4CCc5ccccc54)ncnc32)C[C@@H]1O [Compound I-1, ((2R,3S,5R)-5-{6-[(1S)-2,3-dihydro-1H-inden-1-ylamino]-9H-purin-9-yl}-3-hydroxytetrahydrofuran-2-yl)methyl sulfamate] | ≤ 100 nM | ≤ 1000 nM
2 | Cn1cc(CNc2ncnc3c2ncn3[C@@H]2O[C@H](CNS(N)(=O)=O)[C@@H](O)[C@H]2O)cn1 [Compound I-38, N-{[(2R,3S,4R,5R)-3,4-dihydroxy-5-(6-{[(1-methyl-1H-pyrazol-4-yl)methyl]-amino}-9H-purin-9-yl)tetrahydrofuran-2-yl]methyl}sulfamide] |  | ≤ 1000 nM
3 | C[C@@H](OS(N)(=O)=O)[C@H]1O[C@@H](n2cnc3c(N[C@H]4CCc5ccccc54)ncnc32)[C@H](O)[C@@H]1O [Compound I-58, (R)-1-((2S,3S,4R,5R)-5-(6-((S)-2,3-dihydro-1H-inden-1-ylamino)-9H-purin-9-yl)-3,4-dihydroxy-tetrahydrofuran-2-yl)ethyl sulfamate] | ≤ 100 nM | ≤ 1000 nM
4 | NS(=O)(=O)NC[C@H]1O[C@@H](n2cnc3c(NCc4ccc(F)cc4)ncnc32)[C@H](O)[C@@H]1O [Compound I-126, N-[((2R,3S,4R,5R)-5-{6-[(4-fluorobenzyl)amino]-9H-purin-9-yl}-3,4-dihydroxytetrahydrofuran-2-yl)methyl]sulfamide] | ≤ 100 nM | ≤ 1000 nM
5 | COCCc1ncnc2c1ncn2[C@@H]1O[C@H](COS(N)(=O)=O)[C@@H](O)[C@H]1O [Compound I-137, {(2R,3S,4R,5R)-3,4-dihydroxy-5-[6-(2-methoxyethyl)-9H-purin-9-yl]tetrahydrofuran-2-yl}methyl sulfamate] | ≤ 100 nM | ≤ 1000 nM
